# Measurements taken from patent US20240238242A1, “EGCG buccal tablet and use thereof” (priority 2023, published 2024).
# “And” between values parts separate entries of the source, which are not always exact repeats. Equal entries are not always repeated. Where two headings read alike, the source gives them in different places.
# Tested on: Influenza A virus neuraminidase inhibitor-resistant strain (ZX-1109)
# Type: cell-based
smiles,measurement,setting,value
"O=C(O[C@@H]1Cc2c(O)cc(O)cc2O[C@@H]1c1cc(O)c(O)c(O)c1)c1cc(O)c(O)c(O)c1 [EGCG, Epigallocatechin gallate]",CPE test per cell well,"0.2 mM EGCG + ZX1109 virus, 1 minute, second experiment, dilution factor 10^1, wells 1-10",+
same,CPE test per cell well,"0.2 mM EGCG + ZX1109 virus, 1 minute, second experiment, dilution factor 10^2, wells 1-10",+
same,CPE test per cell well,"0.2 mM EGCG + ZX1109 virus, 1 minute, second experiment, dilution factor 10^3, wells 1-10",+
same,CPE test per cell well,"0.2 mM EGCG + ZX1109 virus, 1 minute, second experiment, dilution factor 10^4, wells 1-10",+
same,CPE test per cell well,"0.2 mM EGCG + ZX1109 virus, 1 minute, second experiment, dilution factor 10^5, wells 1-10",+ and −
same,CPE test per cell well,"0.2 mM EGCG + ZX1109 virus, 1 minute, second experiment, dilution factor 10^6, wells 1-10",−
same,CPE test per cell well,"0.2 mM EGCG + ZX1109 virus, 1 minute, second experiment, dilution factor 10^7, wells 1-10",−
same,CPE test per cell well,"0.2 mM EGCG + ZX1109 virus, 1 minute, second experiment, dilution factor 10^8, wells 1-10",−
same,CPE test per cell well,"0.2 mM EGCG + ZX-1109 virus, 1 minute, first experiment, dilution factor 10^1, wells 1-10",+
same,CPE test per cell well,"0.2 mM EGCG + ZX-1109 virus, 1 minute, first experiment, dilution factor 10^2, wells 1-10",+
same,CPE test per cell well,"0.2 mM EGCG + ZX-1109 virus, 1 minute, first experiment, dilution factor 10^3, wells 1-10",+
same,CPE test per cell well,"0.2 mM EGCG + ZX-1109 virus, 1 minute, first experiment, dilution factor 10^4, wells 1-10",+
same,CPE test per cell well,"0.2 mM EGCG + ZX-1109 virus, 1 minute, first experiment, dilution factor 10^5, wells 1-10",+ and −
same,CPE test per cell well,"0.2 mM EGCG + ZX-1109 virus, 1 minute, first experiment, dilution factor 10^6, wells 1-10",+ and −
same,CPE test per cell well,"0.2 mM EGCG + ZX-1109 virus, 1 minute, first experiment, dilution factor 10^7, wells 1-10",−
same,CPE test per cell well,"0.2 mM EGCG + ZX-1109 virus, 1 minute, first experiment, dilution factor 10^8, wells 1-10",−
same,CPE test (virus replication in the cell wells),"0.2 mM EGCG + ZX-1109 virus, 1 minute, third experiment, dilution factor 10^1, wells 1-10",+
same,CPE test (virus replication in the cell wells),"0.2 mM EGCG + ZX-1109 virus, 1 minute, third experiment, dilution factor 10^2, wells 1-10",+
same,CPE test (virus replication in the cell wells),"0.2 mM EGCG + ZX-1109 virus, 1 minute, third experiment, dilution factor 10^3, wells 1-10",+
same,CPE test (virus replication in the cell wells),"0.2 mM EGCG + ZX-1109 virus, 1 minute, third experiment, dilution factor 10^4, wells 1-10",+
same,CPE test (virus replication in the cell wells),"0.2 mM EGCG + ZX-1109 virus, 1 minute, third experiment, dilution factor 10^5, wells 1-10",− and +
same,CPE test (virus replication in the cell wells),"0.2 mM EGCG + ZX-1109 virus, 1 minute, third experiment, dilution factor 10^6, wells 1-10",+ and −
same,CPE test (virus replication in the cell wells),"0.2 mM EGCG + ZX-1109 virus, 1 minute, third experiment, dilution factor 10^7, wells 1-10",−
same,CPE test (virus replication in the cell wells),"0.2 mM EGCG + ZX-1109 virus, 1 minute, third experiment, dilution factor 10^8, wells 1-10",−
same,CPE test (virus replication in the cell wells),"0.2 mM EGCG + ZX-1109 virus, 5 minute, first experiment, dilution factor 10^1, wells 1-10",+
same,CPE test (virus replication in the cell wells),"0.2 mM EGCG + ZX-1109 virus, 5 minute, first experiment, dilution factor 10^2, wells 1-10",+
same,CPE test (virus replication in the cell wells),"0.2 mM EGCG + ZX-1109 virus, 5 minute, first experiment, dilution factor 10^3, wells 1-10",+
same,CPE test (virus replication in the cell wells),"0.2 mM EGCG + ZX-1109 virus, 5 minute, first experiment, dilution factor 10^4, wells 1-10",+
same,CPE test (virus replication in the cell wells),"0.2 mM EGCG + ZX-1109 virus, 5 minute, first experiment, dilution factor 10^5, wells 1-10",+
same,CPE test (virus replication in the cell wells),"0.2 mM EGCG + ZX-1109 virus, 5 minute, first experiment, dilution factor 10^6, wells 1-10",− and +
same,CPE test (virus replication in the cell wells),"0.2 mM EGCG + ZX-1109 virus, 5 minute, first experiment, dilution factor 10^7, wells 1-10",− and +
same,CPE test (virus replication in the cell wells),"0.2 mM EGCG + ZX-1109 virus, 5 minute, first experiment, dilution factor 10^8, wells 1-10",− and +
same,CPE test (virus replication in the cell wells),"0.2 mM EGCG + ZX-1109 virus, 5 minute, second experiment, dilution factor 10^1, wells 1-10",+
same,CPE test (virus replication in the cell wells),"0.2 mM EGCG + ZX-1109 virus, 5 minute, second experiment, dilution factor 10^2, wells 1-10",+
same,CPE test (virus replication in the cell wells),"0.2 mM EGCG + ZX-1109 virus, 5 minute, second experiment, dilution factor 10^3, wells 1-10",+
same,CPE test (virus replication in the cell wells),"0.2 mM EGCG + ZX-1109 virus, 5 minute, second experiment, dilution factor 10^4, wells 1-10",+
same,CPE test (virus replication in the cell wells),"0.2 mM EGCG + ZX-1109 virus, 5 minute, second experiment, dilution factor 10^5, wells 1-10",+ and −
same,CPE test (virus replication in the cell wells),"0.2 mM EGCG + ZX-1109 virus, 5 minute, second experiment, dilution factor 10^6, wells 1-10",− and +
same,CPE test (virus replication in the cell wells),"0.2 mM EGCG + ZX-1109 virus, 5 minute, second experiment, dilution factor 10^7, wells 1-10",−
same,CPE test per cell well,"0.2 mM EGCG + ZX-1109 virus, 5 minute, third experiment, dilution factor 10^1, wells 1-10",+
same,CPE test per cell well,"0.2 mM EGCG + ZX-1109 virus, 5 minute, third experiment, dilution factor 10^2, wells 1-10",+
same,CPE test per cell well,"0.2 mM EGCG + ZX-1109 virus, 5 minute, third experiment, dilution factor 10^3, wells 1-10",+
same,CPE test per cell well,"0.2 mM EGCG + ZX-1109 virus, 5 minute, third experiment, dilution factor 10^4, wells 1-10",+
same,CPE test per cell well,"0.2 mM EGCG + ZX-1109 virus, 5 minute, third experiment, dilution factor 10^5, wells 1-10",+
same,CPE test per cell well,"0.2 mM EGCG + ZX-1109 virus, 5 minute, third experiment, dilution factor 10^6, wells 1-10",+ and −
same,CPE test per cell well,"0.2 mM EGCG + ZX-1109 virus, 5 minute, third experiment, dilution factor 10^7, wells 1-10",+ and −
same,CPE test per cell well,"0.2 mM EGCG + ZX-1109 virus, 5 minute, third experiment, dilution factor 10^8, wells 1-10",− and +
same,average inactivation efficiency against virus,"0.2 mM EGCG, ZX1109 virus, 5 minutes, three experiments",92.16%
same,residual virus titer of EGCG+virus group (Karber method),"0.2 mM EGCG, ZX-1109 virus, 5 minutes",10^7 TCID50/50 μL
same,inactivation efficiency against the virus,"0.2 mM EGCG, ZX-1109 virus, 5 minutes, single experiment",98.42% and 98.00% and 80.05%
same,CPE test per cell well,"1 mM EGCG + ZX1109 virus, 1 minute, second experiment, dilution factor 10^1, wells 1-10",+
same,CPE test per cell well,"1 mM EGCG + ZX1109 virus, 1 minute, second experiment, dilution factor 10^2, wells 1-10",+
same,CPE test per cell well,"1 mM EGCG + ZX1109 virus, 1 minute, second experiment, dilution factor 10^3, wells 1-10",+
same,CPE test per cell well,"1 mM EGCG + ZX1109 virus, 1 minute, second experiment, dilution factor 10^4, wells 1-10",+
same,CPE test per cell well,"1 mM EGCG + ZX1109 virus, 1 minute, second experiment, dilution factor 10^5, wells 1-10",− and +
same,CPE test per cell well,"1 mM EGCG + ZX1109 virus, 1 minute, second experiment, dilution factor 10^6, wells 1-10",−
same,CPE test per cell well,"1 mM EGCG + ZX1109 virus, 1 minute, second experiment, dilution factor 10^7, wells 1-10",−
same,CPE test per cell well,"1 mM EGCG + ZX1109 virus, 1 minute, second experiment, dilution factor 10^8, wells 1-10",−
same,CPE test per cell well,"1 mM EGCG + ZX-1109 virus, 1 minute, first experiment, dilution factor 10^1, wells 1-10",+
same,CPE test per cell well,"1 mM EGCG + ZX-1109 virus, 1 minute, first experiment, dilution factor 10^2, wells 1-10",+
same,CPE test per cell well,"1 mM EGCG + ZX-1109 virus, 1 minute, first experiment, dilution factor 10^3, wells 1-10",+
same,CPE test per cell well,"1 mM EGCG + ZX-1109 virus, 1 minute, first experiment, dilution factor 10^4, wells 1-10",+
same,CPE test per cell well,"1 mM EGCG + ZX-1109 virus, 1 minute, first experiment, dilution factor 10^5, wells 1-10",+ and −
same,CPE test per cell well,"1 mM EGCG + ZX-1109 virus, 1 minute, first experiment, dilution factor 10^6, wells 1-10",−
same,CPE test per cell well,"1 mM EGCG + ZX-1109 virus, 1 minute, first experiment, dilution factor 10^7, wells 1-10",−
same,CPE test per cell well,"1 mM EGCG + ZX-1109 virus, 1 minute, first experiment, dilution factor 10^8, wells 1-10",−
same,CPE test (virus replication in the cell wells),"1 mM EGCG + ZX-1109 virus, 1 minute, third experiment, dilution factor 10^1, wells 1-10",+
same,CPE test (virus replication in the cell wells),"1 mM EGCG + ZX-1109 virus, 1 minute, third experiment, dilution factor 10^2, wells 1-10",+
same,CPE test (virus replication in the cell wells),"1 mM EGCG + ZX-1109 virus, 1 minute, third experiment, dilution factor 10^3, wells 1-10",+
same,CPE test (virus replication in the cell wells),"1 mM EGCG + ZX-1109 virus, 1 minute, third experiment, dilution factor 10^4, wells 1-10",+
same,CPE test (virus replication in the cell wells),"1 mM EGCG + ZX-1109 virus, 1 minute, third experiment, dilution factor 10^5, wells 1-10",+ and −
